Results as given in patent publication US20040044075A1, “Alpha acyloxyacetamides for kallikrein and urokinase inhibition” (Genzyme Corporation, priority 2002, published 2004).

Molecular target: Kallikrein (Homo sapiens, UniProt P03952)
Test: Kallikrein inhibition assay (fluorometric, H-Pro-Phe-Arg-AMC substrate)
Type: biochemical
Conditions: 24° C, HEPES pH 7.5, 5% DMSO, fluorescence after ten minutes
Experimental: Kallikrein activity was assayed fluorometrically with an aminomethyl coumarin-containing (AMC-containing) substrate according to procedures described in Zimmerman et al., Proc. Natl. Acad. Sci. USA 75:750 (1978), the entire teachings of which are incorporated herein by reference. Specifically, enzyme assays with varying concentrations of the fluorogenic substrate H-Pro-Phe-Arg-AMC were conducted at 24° C in 0.05 M 4-(2-hydroxyethyl)-piperazineethanesulfonic acid (HEPES) buffer, pH 7.5/5% (vol/vol) dimethyl sulfoxide. The final volume was 0.1 ml in each assay. Fluorescence was read after ten minutes at 360 nm (activation wavelength) and 460 nm (emission wavelength).

Sequence of Kallikrein (P03952 whole entry): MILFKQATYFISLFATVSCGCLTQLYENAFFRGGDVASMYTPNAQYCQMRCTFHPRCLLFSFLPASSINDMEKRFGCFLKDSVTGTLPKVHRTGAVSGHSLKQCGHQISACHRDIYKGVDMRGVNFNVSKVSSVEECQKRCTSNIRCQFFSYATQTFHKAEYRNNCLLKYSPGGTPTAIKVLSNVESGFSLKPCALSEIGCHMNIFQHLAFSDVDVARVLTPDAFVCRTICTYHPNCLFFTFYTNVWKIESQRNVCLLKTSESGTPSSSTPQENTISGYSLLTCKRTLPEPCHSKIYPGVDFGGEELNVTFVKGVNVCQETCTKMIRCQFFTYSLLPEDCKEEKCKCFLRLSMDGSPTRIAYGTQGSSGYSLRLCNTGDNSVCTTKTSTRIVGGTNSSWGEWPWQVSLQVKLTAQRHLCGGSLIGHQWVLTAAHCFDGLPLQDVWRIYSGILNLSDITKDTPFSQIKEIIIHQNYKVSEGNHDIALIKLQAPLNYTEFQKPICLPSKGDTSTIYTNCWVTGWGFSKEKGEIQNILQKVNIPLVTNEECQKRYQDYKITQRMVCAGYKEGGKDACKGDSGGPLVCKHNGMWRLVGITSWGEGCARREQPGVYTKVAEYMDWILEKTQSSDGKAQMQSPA

SMILES | IC50 [µM]
COc1cc(CNC(=O)C(OC(=O)CSc2nc(C)cc(C)n2)c2cccc(C#N)c2)cc(OC)c1OC (stereo not drawn) [Compound (18)] | 6.47
COc1cccc(OCCC(=O)OC(C(=O)NCc2cc(OC)c(OC)c(OC)c2)c2cccc(C#N)c2)c1 (stereo not drawn) [Compound (19)] | 1.69
COc1cc(CNC(=O)C(OC(=O)CCC(=O)c2ccccc2)c2ccc(S(C)(=O)=O)cc2)cc(OC)c1OC (stereo not drawn) [Compound (14)] | 1.18
COc1cc(CNC(=O)C(OC(=O)CSc2nccc(C)n2)c2cccc(C#N)c2)cc(OC)c1OC (stereo not drawn) [Compound (17)] | 0.384
N#Cc1ccc(C(OC(=O)Cc2c[nH]c3ccccc23)C(=O)NC2CC2)cc1 (stereo not drawn) [Compound (38)] | 3.77
COc1cc(CNC(=O)C(OC(=O)Cc2c[nH]c3ccc(Br)cc23)c2ccc(Br)cc2)cc(OC)c1OC (stereo not drawn) [Compound (39)] | 2.68
COC(=O)c1ccc(C(OC(=O)CCC(=O)c2ccccc2)C(=O)NCc2cc(OC)c(OC)c(OC)c2)cc1 (stereo not drawn) [Compound (11)] | 0.442
N#Cc1ccc(C(OC(=O)CCC2CCCCC2)C(=O)NC2CC2)cc1 (stereo not drawn) [Compound (3)] | 1.06
COc1ccc(CC(=O)OC(C(=O)NCc2cc(OC)c(OC)c(OC)c2)c2ccc(C#N)cc2)cc1 (stereo not drawn) [Compound (23)] | 0.576
COc1ccc(OC)c(C(=O)CCC(=O)OC(C(=O)Nc2ccc(OC)c(OC)c2)c2cccc(C#N)c2)c1 (stereo not drawn) [Compound (16)] | 0.253
COc1ccc(CC(=O)OC(C(=O)Nc2ccc(OC)c(OC)c2)c2ccc(Br)cc2)cc1 (stereo not drawn) [Compound (28)] | 0.68
COc1cc(CNC(=O)C(OC(=O)CCOc2ccccc2)c2cccc(C#N)c2)cc(OC)c1OC (stereo not drawn) [Compound (15)] | 0.577
COc1ccc(CC(=O)OC(C(=O)NC2CC2)c2ccc(C#N)cc2)cc1 (stereo not drawn) [Compound (35)] | 0.391
COc1ccc(CCNC(=O)C(OC(=O)CSc2ncccn2)c2ccc(C#N)cc2)cc1 (stereo not drawn) [Compound (31)] | 0.543
COc1ccc(OC)c(C(=O)CCC(=O)OC(C(=O)NCc2cc(OC)c(OC)c(OC)c2)c2ccccc2)c1 (stereo not drawn) [Compound (37)] | 1.67
NC(=O)c1ccc(NC(=O)C(OC(=O)CCOc2ccccc2)c2ccc(Br)cc2)cc1 (stereo not drawn) [Compound (33)] | 0.459
COc1ccc(OC)c(C(=O)CCC(=O)OC(C(=O)NCc2cc(OC)c(OC)c(OC)c2)c2ccc3ccccc3c2)c1 (stereo not drawn) [Compound (24)] | 0.247
COc1cc(CNC(=O)C(OC(=O)CCCc2ccccc2)c2cccc(C#N)c2)cc(OC)c1OC (stereo not drawn) [Compound (21)] | 1.18
COc1cc(CNC(=O)C(OC(=O)CSc2ncccn2)c2cccc(C#N)c2)cc(OC)c1OC (stereo not drawn) [Compound (20)] | 1.48
O=C(CCOc1ccccc1)OC(C(=O)Nc1ccc2ncccc2c1)c1ccc(Br)cc1 (stereo not drawn) [Compound (32)] | 1.34
COc1ccc(OC)c(C(=O)CCC(=O)OC(C(=O)NC2CC2)c2ccc(Br)cc2)c1 (stereo not drawn) [Compound (1)] | 0.174
COc1ccc(NC(=O)C(OC(=O)CCOc2ccccc2)c2ccc(Br)cc2)cc1 (stereo not drawn) [Compound (30)] | 0.714
COc1ccc(OC)c(C(=O)CCC(=O)OC(C(=O)NCc2cc(OC)c(OC)c(OC)c2)c2ccc(C(F)(F)F)cc2)c1 (stereo not drawn) [Compound (34)] | 0.731
COc1cc(CNC(=O)C(OC(=O)CCC(=O)c2ccccc2)c2ccccc2)cc(OC)c1OC (stereo not drawn) [Compound (12)] | 0.737
COc1cc(CNC(=O)C(OC(=O)CCOc2ccccc2)c2ccc(Br)cc2)cc(OC)c1OC (stereo not drawn) [Compound (27)] | 0.364
COc1ccc(CC(=O)OC(C(=O)Nc2ccc(OC)c(OC)c2)c2ccc(C#N)cc2)cc1 (stereo not drawn) [Compound (22)] | 0.428
COc1ccc(OC)c(C(=O)CCC(=O)OC(C(=O)Nc2ccc(OC)c(OC)c2)c2ccc(Br)cc2)c1 (stereo not drawn) [Compound (25)] | 0.275
N#Cc1ccc(C(OC(=O)Cc2c[nH]c3ccc(Br)cc23)C(=O)NC2CC2)cc1 (stereo not drawn) [Compound (2)] | 0.167
COc1cc(CNC(=O)C(OC(=O)c2csc3cc4c(cc23)OC(C)(C)O4)c2ccc(Br)cc2)cc(OC)c1OC (stereo not drawn) [Compound (36)] | 3.67
COc1cc(CNC(=O)C(OC(=O)CCC(=O)c2ccccc2)c2ccc(SC)cc2)cc(OC)c1OC (stereo not drawn) [Compound (13)] | 0.874

Molecular target: Urokinase (Homo sapiens, UniProt P00749)
Test: Urokinase assay (fluorometric, Cbz-Gly-Gly-Arg-AMC substrate)
Type: biochemical
Conditions: 24° C, HEPES pH 7.5, 5% DMSO, fluorescence after ten minutes; read-out: IC50 (μM), urokinase inhibition
Experimental: Urokinase activity was assayed fluorometrically with an aminomethyl coumarin-containing (AMC-containing) substrate according to procedures described in Zimmerman et al, Proc. Natl. Acad. Sci. USA 75:750 (1978), the entire teachings of which are incorporated herein by reference. Specifically, enzyme assays with varying concentrations of the fluorogenic substrate Cbz-Gly-Gly-Arg-AMC were conducted at 24° C. in 0.05 M 4-(2-hydroxyethyl)-piperazineethanesulfonic acid (HEPES) buffer, pH 7.5/5% (vol/vol) dimethyl sulfoxide; the final volume was 0.1 ml in each assay.
Fluorescence was read after ten minutes at 360 nm (activation wavelength) and 460 nm (emission wavelength).

SMILES | IC50 [µM]
N#Cc1ccc(C(OC(=O)CCC2CCCC2)C(=O)NC2CC2)cc1 (stereo not drawn) [Compound (55)] | 0.151
COc1cc(CNC(=O)C(OC(=O)CCC2CCCCC2)c2cccc(C#N)c2)cc(OC)c1OC (stereo not drawn) [Compound (44)] | 1.78
N#Cc1ccc(C(OC(=O)CSc2ncccn2)C(=O)NC2CC2)cc1 (stereo not drawn) [Compound (6)] | 0.032
N#Cc1ccc(C(OC(=O)CCC2CCCCC2)C(=O)NC2CC2)cc1 (stereo not drawn) [Compound (56)] | 0.055
COc1ccc(CC(=O)OC(C(=O)NCc2ccc3c(c2)OCO3)c2ccc(C#N)cc2)cc1 (stereo not drawn) [Compound (10)] | 0.783
COc1ccc(CCNC(=O)C(OC(=O)CSc2ncccn2)c2ccc(OC)cc2)cc1 (stereo not drawn) [Compound (47)] | 2.38
COc1cc(CNC(=O)C(OC(=O)CSc2ncccn2)c2cccc(C#N)c2)cc(OC)c1OC (stereo not drawn) [Compound (9)] | 0.923
CCOC(=O)CCNC(=O)C(OC(=O)Cc1ccc(OC)cc1)c1ccc(C#N)cc1 (stereo not drawn) [Compound (53)] | 1.06
COc1ccc(CCNC(=O)C(OC(=O)Cc2ccc(OC)cc2)c2ccc(C#N)cc2)cc1 (stereo not drawn) [Compound (51)] | 1.22
COc1cc(CNC(=O)C(OC(=O)CCOc2ccccc2)c2cccc(C#N)c2)cc(OC)c1OC (stereo not drawn) [Compound (40)] | 6.09
N#Cc1ccc(C(OC(=O)Cc2c[nH]c3ccccc23)C(=O)NC2CC2)cc1 (stereo not drawn) [Compound (4)] | 0.086
COc1ccc(CCNC(=O)C(OC(=O)CSc2ncccn2)c2ccc3ccccc3c2)cc1 (stereo not drawn) [Compound (46)] | 2.93
COc1ccc(CCNC(=O)C(OC(=O)CSc2ncccn2)c2ccc(C(F)(F)F)cc2)cc1 (stereo not drawn) [Compound (48)] | 5.38
COc1ccc(CC(=O)OC(C(=O)NC2CC2)c2ccccc2)cc1 (stereo not drawn) [Compound (54)] | 0.814
COc1ccc(CCNC(=O)C(OC(=O)CSc2ncccn2)c2ccc(C#N)cc2)cc1 (stereo not drawn) [Compound (8)] | 0.112
COc1ccc(CC(=O)OC(C(=O)NCc2cc(OC)c(OC)c(OC)c2)c2ccc(C#N)cc2)cc1 (stereo not drawn) [Compound (42)] | 1.97
N#Cc1ccc(C(OC(=O)Cc2c[nH]c3ccc(Br)cc23)C(=O)NC2CC2)cc1 (stereo not drawn) [Compound (5)] | 0.029
COc1ccc(NC(=O)C(OC(=O)CSc2ncccn2)c2ccc(Br)cc2)cc1OC (stereo not drawn) [Compound (43)] | 3.39
COc1ccc(CC(=O)OC(C(=O)Nc2ccc(OC)c(OC)c2)c2ccc(C#N)cc2)cc1 (stereo not drawn) [Compound (41)] | 2.32
COc1ccc(CC(=O)OC(C(=O)NC2CC2)c2ccc(C#N)cc2)cc1 (stereo not drawn) [Compound (7)] | 0.11
COc1ccc(C(OC(=O)CSc2ncccn2)C(=O)NCc2ccc3c(c2)OCO3)cc1 (stereo not drawn) [Compound (49)] | 1.37
O=C(CSc1ncccn1)OC(C(=O)NCc1ccc2c(c1)OCO2)c1ccc(C(F)(F)F)cc1 (stereo not drawn) [Compound (50)] | 3.1
CCSCCNC(=O)C(OC(=O)Cc1ccc(OC)cc1)c1ccc(C#N)cc1 (stereo not drawn) [Compound (52)] | 0.628
COc1ccc(CCNC(=O)C(OC(=O)CSc2ncccn2)c2ccc(Br)cc2)cc1 (stereo not drawn) [Compound (45)] | 1.41

System: male rats
Test: Rat model of inflammatory bowel disease (DNBS-induced distal colitis)
Type: in vivo
Conditions: 500 mg/kg PO × 7, with DNBS; rats
Experimental: Compounds were tested according to procedures described in C M Hogaboam et al., Eur. J. Pharmacol. 309:261 (1996), the entire teachings of which are incorporated herein by reference. Groups of 3 overnight fasted male rats weighing 150±10 grams were used. Distal colitis was induced by intra-colonic instillation of 0.5 ml/rat of DNBS (2,4-dinitrobenzene sulfonic acid, 60 mg/ml in ethanol 30%) after which air (2 ml) was gently injected through the cannula to ensure that the solution remained in the colon. Test compound was administered orally 24 and 2 hours before DNBS instillation and then daily for 5 days in total of 7 doses. The animals were sacrificed 24 hours after the final dose of test compound administration and each colon was removed and weighed. A 30 percent or more (≧30%) inhibition in net increase of colon to 100 grams body weight ratio, relative to vehicle-control-2 group is considered significant.

SMILES | Ave. (average final weight of the colon in grams) [grams] | Inhibition (percent inhibition in net increase of colon weight relative to control Group 2) [%] | Net Inc. (net increase in weight of the colon relative to control Group 1) [grams]
O=C(O)c1cc(/N=N/c2ccc(S(=O)(=O)Nc3ccccn3)cc2)ccc1O [Sulfasalazine, reference compound] | 0.865 | 32 | 0.378

System: ICR derived male or female mice
Test: Acetic acid writhing assay
Type: in vivo
Conditions: 20 mg/kg IP, one hour before acetic acid
Experimental: The analgesic activity of a number of compounds of the present invention were tested in an acetic acid writhing assay disclosed in Inoue et al., Arzneimittel Forschung Drug Research 41:228 (1991), the entire teachings of which are incorporated herein by reference. The test substance was administered intraperitoneally (500, 100 and 20 mg/kg) to groups of 3 ICR derived male or female mice weighing 22±2 g one hour before the injection of acetic acid (3%, 10 ml/kg, IP). Reduction in the number of writhes by 50% or more per group of animals observed during the 5-10 minutes period after acetic acid administration, relative to a vehicle-treated control group (challenge with acetic acid), indicates analgesic activity.

SMILES | % Reduction of Writhes [%]
COc1ccc(OC)c(C(=O)CCC(=O)OC(C(=O)NCc2cc(OC)c(OC)c(OC)c2)c2ccc3ccccc3c2)c1 (stereo not drawn) [Compound (24)] | 0
COc1cc(CNC(=O)C(OC(=O)CCOc2ccccc2)c2ccc(Br)cc2)cc(OC)c1OC (stereo not drawn) [Compound (27)] | 8

Same assay, conditions: 100 mg/kg IP, one hour before acetic acid

SMILES | % Reduction of Writhes [%]
COc1ccc(OC)c(C(=O)CCC(=O)OC(C(=O)NCc2cc(OC)c(OC)c(OC)c2)c2ccc3ccccc3c2)c1 (stereo not drawn) [Compound (24)] | 25
COc1cc(CNC(=O)C(OC(=O)CCOc2ccccc2)c2ccc(Br)cc2)cc(OC)c1OC (stereo not drawn) [Compound (27)] | 25

Same assay, conditions: 500 mg/kg IP, one hour before acetic acid

SMILES | % Reduction of Writhes [%]
COc1ccc(OC)c(C(=O)CCC(=O)OC(C(=O)NCc2cc(OC)c(OC)c(OC)c2)c2ccc3ccccc3c2)c1 (stereo not drawn) [Compound (24)] | 83
COc1cc(CNC(=O)C(OC(=O)CCOc2ccccc2)c2ccc(Br)cc2)cc(OC)c1OC (stereo not drawn) [Compound (27)] | 92
